The text below walks through data of paper PMC12664080, “Tetrazole-containing naphthalene bis-sulfonamide Keap1-Nrf2 interaction inhibitors with unexpected binding modes” (Redox Biology, 2025).

Where “and” joins values, the source holds several entries; their conditions need not be identical. Identical values can stand only once. Like-named read-outs stand apart in the source and are kept apart here.

Data set [1] concerns the target T1, Keap1 Kelch domain (Homo sapiens, UniProt Q14145).
T1 construct: made in house
In words: Fluorescence polarisation (FP) competition assay. In kind it is binding. On the procedure: The FP assays were carried out according to previously described methods [[23],[31], [32], [33], [34]]. […] Following incubation under slow agitation (30 min at rt in the absence of light), the plates were transferred to a PHERAstar microplate reader and the FP was recorded. All measurements were recorded in triplicate. The data were normalised to the control and then fitted to a standard four-parameter logistic function using the Origin Pro software.
Background: Polarisation of emitted light reports the rotation of a fluorescent probe.

Data set [2] has as its system Nrf2 target genes. In words: Gene expression analysis (real-time quantitative PCR) in Hepa1c1c7 cells. In kind it is cell-based, mouse. Conditions: 16-h incubation, 10 μM or 50 μM. On the procedure: Hepa1c1c7 cells (5 × 10^5 cells/well, n = 3) were seeded on six-well plates, and on the next day were treated with compound 25 (10 μM or 50 μM) or vehicle (0.1 % DMSO) for 16 h. After two washes with PBS, the cells were lysed. RNA was then extracted, cDNA was synthesised, and the levels of mRNA for each gene were determined by real-time quantitative PCR (TaqMan). The levels of 18S mRNA in each sample were used as a control for normalization.

Data set [3] in a line: EXSY NMR of cis/trans rotamer exchange. In kind it is physicochemical. From the text:
A series of pseudo-3D EXSY spectra were then acquired for compound 25 in D2O at temperatures of 280, 290, 300, 310 and 320 K (700 MHz, pulse sequence adapted from noesygpphpr and available on request, 1 s recycle delay, 13 mixing times from 5 to 1000 ms, acquisition times of 367 ms and 52 ms and spectra widths of 16 ppm and 3.5 ppm for direct and indirect dimensions respectively). Spectra were processed with linear prediction and cosine-squared window functions. For each temperature, methoxy singlet resonances were selected for analysis, and the intensities of the diagonal ( IAA and IBB ) and cross peaks ( IAB and IBA ) were fitted to Eq. (1) as a function of the mixing time, T, to determine the exchange rates kAB and kBA [41]. The ‘A’ state was defined to be the more shielded signal. Reported uncertainties were obtained from the non-linear fitting procedure.(1) (IAAIABIBAIBB)(T)=exp[(−R1,A−kABkBAkAB−R1,B−kBA)T]·(IA000IB0)
Exchange rates kAB and kBA were used to determine the relative populations pA=kBA/kAB+kBA and pB=kAB/kAB+kBA and were fitted to van't Hoff and Eyring equations (with unit transmission coefficient) to estimate the enthalpy and entropy changes and enthalpy and entropy of activation.

In data set [4] the test system is NQO1. In words: NQO1 induction assay in Hepa1c1c7 cells. In kind it is cell-based, mouse. As to the method:
The method using Hepa1c1c7 cells has been described previously. Briefly, cells were seeded into 96-well plates (2 × 10^4 cells/200 μL per well) then incubated overnight at 37 °C. The cells were treated with compound (10 μM final concentration) or vehicle (final DMSO concentration 0.1 % DMSO) and incubated for a further 24 h or 48 h. The culture medium was aspirated and the cells treated with lysis buffer (50 μL per well, 0.1 % Tween 20 in 2 mM EDTA (pH 7.5)) then agitated for 15 min. Enzyme reaction mixture was added to each well (200 μL of 25 mM Tris buffer (pH 7.5) containing BSA (0.067 %), Tween20 (0.01 %), FAD (5 μM), G6P (1 mM), NADP (30 μM), G6P dehydrogenase (40 units), MTT (0.03 %), menadione (50 μM)) for 5 min then stop solution was applied (40 μL of 10 % SDS, final concentration 1.5 % SDS). Following brief agitation of the plate, the absorbance at 595 nm was measured. The background optical density was measured from wells containing tissue culture medium, lysis buffer, enzyme and stop solutions in the absence of Hepa1c1c7 cells. The change in background-corrected NQO1 activity (change in optical density) relative to the control was determined for each compound.

Data set [5] has as its target Keap1 (Homo sapiens, UniProt Q14145). The data set can be described thus: Microscale thermophoresis (MST).
Experimental: Keap1 was labelled using the Protein Labelling Kit RED-NHS 2nd Generation (NanoTemper, München, Germany). Keap1 was diluted to 2 μM in RED-NHS Labelling Buffer. 10 μg of RED-NHS 2nd Generation labelling dye was freshly dissolved in 25 μL of DMSO to yield a concentration of 600 μM, then further diluted in RED-NHS Labelling Buffer to 300 μM. A volume of 20 μL of the 300 μM labelling dye was thoroughly mixed with 180 μL of 2 μM Keap1 and incubated at rt in a dark environment for 3 h. […] The sample was transferred to the centre of the resin bed in the B-column. 550 μL of Keap1 MST buffer was pipetted into the B-column and allowed to enter completely, followed by elution of the sample with 450 μL of Keap1 MST buffer and the flow-through was collected into a 1.5 mL Eppendorf tube. The collected sample was centrifuged at 15,000×g for 10 min at 4 °C to remove aggregates. Protein concentration in the collected sample was determined using the NanoDrop spectrophotometer. The sample was then tested in MST pre-test to evaluate the labelling quality.
Labelled Keap1 was diluted to 20 nM in Keap1 MST buffer prior to the reaction setup. […] An equal volume of 20 nM Keap1 was thoroughly mixed with each diluted sample and incubated for 30 min at rt. […] An equal volume of 2 nM Keap1 was mixed with each diluted sample and incubated at rt for 30 min. Incubated samples were loaded into Monolith NT.115 standard capillaries and measured using the Monolith NT.115^Pico instrument in triplicate. Parameters and measurements were set and controlled by the MO.Control software and collected datasets were analysed using the MO.Affinity Analysis software.
Data set [6] deals with T1, Keap1 Kelch domain. In words: Isothermal titration calorimetry (ITC). The format is binding. As to the method: The measurements were performed as described previously. The small molecule inhibitor at 500 μM was titrated over 30 injections against 50 μM protein in buffer containing 25 mM HEPES (pH 7.4), 200 mM NaCl and 5 % DMSO. ITC experiments were performed using a MicroCal PEAQ-ITC instrument (Malvern Instruments, UK) at 25 °C with a stirring speed of 750 rpm. The first injection volume was of 0.3 μL followed by 29 injections of 1.3 μL and a gap of 120 s between each injection. Data analyses were performed as previously described. Each small molecule ITC measurement was performed in duplicate and resultant values obtained were averaged after independent analysis.
For orientation: Isothermal titration calorimetry measures the heat released or taken up as one component is titrated into another.

T1 sequence (Q14145 322-609): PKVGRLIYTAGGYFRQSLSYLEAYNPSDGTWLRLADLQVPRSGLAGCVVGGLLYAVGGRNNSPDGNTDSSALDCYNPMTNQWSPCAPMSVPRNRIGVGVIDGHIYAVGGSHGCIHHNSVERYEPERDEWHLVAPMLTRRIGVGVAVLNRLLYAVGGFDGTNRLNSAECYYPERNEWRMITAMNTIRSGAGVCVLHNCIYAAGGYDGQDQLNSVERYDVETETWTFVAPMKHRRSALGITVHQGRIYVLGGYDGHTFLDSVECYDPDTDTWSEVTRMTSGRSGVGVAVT
Keap1, sequence (Q14145 322-609): as above

By IC50 is commonly meant the concentration that inhibits the measured activity by half. Low readings indicate inhibition by little substance, high ones a need for much substance. A word on the fold induction: it is the ratio of treated to control signal. Usually Kd stands for the equilibrium constant for the complex coming apart. Turning to `COc1ccc(S(=O)(=O)N(CC(=O)O)c2ccc(N(Cc3nnn[nH]3)S(=O)(=O)c3ccc(OC)cc3)c3ccccc23)cc1` [Compound 25, N-(4-((N-((1H-tetrazol-5-yl)methyl)-4-methoxyphenyl)sulfonamido)naphthalen-1-yl)-N-((4-methoxyphenyl)sulfonyl)glycine], in data set [1] (200 nM Keap1 Kelch domain, 1 nM FITC-β-DEETGEF-OH), the half-inhibitory concentration (IC50) came to 0.031 ± 0.002 µM. For the same compound, the “FP IC50 fold lower than the bis-acid 2” value in data set [1] (vs 2) was approximately 2 fold. Further, the “FP IC50 fold lower than the bis-tetrazole 13” value in data set [1] (vs 13) is recorded as approximately 2.5 fold. Also, in data set [2], the “mRNA levels for Nrf2 target genes (NQO1, HO-1, GstP, Gclm, Gclc)” value was “increased”. Also, the kA→B is 0.1633 ± 0.0072 s⁻¹ in data set [3] (D2O PBS buffer, 280 K, EXSY); 0.541 ± 0.013 s⁻¹ in data set [3] (D2O PBS buffer, 290 K, EXSY); 1.432 s⁻¹ and 1.432 ± 0.033 s⁻¹ in data set [3] (D2O PBS buffer, 300 K, EXSY); 3.26 ± 0.11 s⁻¹ in data set [3] (D2O PBS buffer, 310 K, EXSY); 8.78 ± 0.39 s⁻¹ in data set [3] (D2O PBS buffer, 320 K, EXSY). Moreover, the ΔHAB in data set [3] (D2O PBS buffer, pH* ~7.4, EXSY) turned out to be 1.43 ± 0.311 kcal/mol. Also, in data set [3] (D2O PBS buffer, pH* ~7.4, EXSY), the “ΔH^‡AB” value is 16.6 ± 0.22 kcal/mol. For the same compound, the ΔSAB is 16.8 ± 4.4 J/(K·mol) in data set [3] (D2O PBS buffer, pH* ~7.4, EXSY) and 16.8 ± 4.4 J K^−1 mol^−1 in data set [3] (D2O, EXSY, van 't Hoff (Fig. 4C)). The ΔS^‡AB in data set [3] (D2O PBS buffer, pH* ~7.4, EXSY) was -11.3 ± 3 J/(K·mol); in data set [3] (D2O, EXSY, Eyring (Fig. 4D)), −11.3 ± 3.0 J K^−1 mol^−1. The “specific enzyme activity of NQO1” value in data set [4] (48-h incubation) is recorded as “increased”. Moreover, in data set [4] (Mus musculus, Hepa-1c1c7, 10 μM), the fold induction at 10 µM worked out at 2.01 ± 0.05. For the same compound, the Kd is 0.0021 ± 0.0005 µM in data set [5] (1 nM Keap1); 0.0243 ± 0.0047 µM in data set [5] (10 nM Keap1); less than 0.001 µM in data set [6] (25 °C, read-out: ITC Kd); not above 0.001 µM in data set [6] (from ITC and MST data, read-out: Kd value for Keap1 Kelch domain (overall, lower limit of detection)).
